Reference: doi:10.1101/2021.04.08.439011v1 (biorxiv, 2021)

Assays:
[1] = biological target: JAK1(JH1domain-catalytic) (Homo sapiens, UniProt P23458); conditions: 0.1 µM; binder
[2] = biological target: JAK1(JH2domain-pseudokinase) (Homo sapiens, UniProt P23458); conditions: 0.1 µM; binder
AURKB = AURKB (Homo sapiens, UniProt Q96GD4); conditions: 0.1 µM; binder
CAMK1G = CAMK1G (Homo sapiens, UniProt Q96NX5); conditions: 0.1 µM; binder
CLK4 = CLK4 (Homo sapiens, UniProt Q9HAZ1); conditions: 0.1 µM; binder
DAPK3 = DAPK3 (Homo sapiens, UniProt O43293); conditions: 0.1 µM; binder
ERK2 = ERK2 (Homo sapiens, UniProt P28482); conditions: 0.1 µM; binder
FER = FER (Homo sapiens, UniProt P16591); conditions: 0.1 µM; binder
FLT3(ITD,D835V) = FLT3(ITD,D835V) (Homo sapiens, UniProt P36888, D835V/ITD); conditions: 0.1 µM; binder
GRK3 = GRK3 (Homo sapiens, UniProt P35626); conditions: 0.1 µM; binder
HPK1 = HPK1 (Homo sapiens, UniProt Q92918); conditions: 0.1 µM; binder
HUNK = HUNK (Homo sapiens, UniProt P57058); conditions: 0.1 µM; binder
IKK-epsilon = IKK-epsilon (Homo sapiens, UniProt Q14164); conditions: 0.1 µM; binder
KIT(L576P) = KIT(L576P) (Homo sapiens, UniProt P10721, L576P); conditions: 0.1 µM; binder
KIT(V559D,T670I) = KIT(V559D,T670I) (Homo sapiens, UniProt P10721, T670I/V559D); conditions: 0.1 µM; binder
MAP3K12 = MAP3K12 (Homo sapiens, UniProt Q12852); conditions: 0.1 µM; binder
MAP4K2 = MAP4K2 (Homo sapiens, UniProt Q12851); conditions: 0.1 µM; binder
MELK = MELK (Homo sapiens, UniProt Q14680); conditions: 0.1 µM; binder
MET(Y1235D) = MET(Y1235D) (Homo sapiens, UniProt P08581, Y1235D); conditions: 0.1 µM; binder
RIOK3 = RIOK3 (Homo sapiens, UniProt O14730); conditions: 0.1 µM; binder
SBK1 = SBK1 (Homo sapiens, UniProt Q52WX2); conditions: 0.1 µM; binder
SYK = SYK (Homo sapiens, UniProt P43405); conditions: 0.1 µM; binder
SgK110 = SgK110 (Homo sapiens, UniProt P0C264); conditions: 0.1 µM; binder
TBK1 = TBK1 (Homo sapiens, UniProt Q9UHD2); conditions: 0.1 µM; binder
TIE1 = TIE1 (Homo sapiens, UniProt P35590); conditions: 0.1 µM; binder
WNK1 = WNK1 (Homo sapiens, UniProt Q9H4A3); conditions: 0.1 µM; binder
FLT3(ITD) = FLT3(ITD) (Homo sapiens, UniProt P36888); conditions: 1 µM; binder
NEK3 = NEK3 (Homo sapiens, UniProt P51956); conditions: 1 µM; binder
PIK3CA(H1047Y) = PIK3CA(H1047Y) (Homo sapiens, UniProt P42336, H1047Y); conditions: 1 µM; binder
ULK3 = ULK3 (Homo sapiens, UniProt Q6PHR2); conditions: 1 µM; binder

Sequence of KIT(L576P) (P10721 whole entry L576P): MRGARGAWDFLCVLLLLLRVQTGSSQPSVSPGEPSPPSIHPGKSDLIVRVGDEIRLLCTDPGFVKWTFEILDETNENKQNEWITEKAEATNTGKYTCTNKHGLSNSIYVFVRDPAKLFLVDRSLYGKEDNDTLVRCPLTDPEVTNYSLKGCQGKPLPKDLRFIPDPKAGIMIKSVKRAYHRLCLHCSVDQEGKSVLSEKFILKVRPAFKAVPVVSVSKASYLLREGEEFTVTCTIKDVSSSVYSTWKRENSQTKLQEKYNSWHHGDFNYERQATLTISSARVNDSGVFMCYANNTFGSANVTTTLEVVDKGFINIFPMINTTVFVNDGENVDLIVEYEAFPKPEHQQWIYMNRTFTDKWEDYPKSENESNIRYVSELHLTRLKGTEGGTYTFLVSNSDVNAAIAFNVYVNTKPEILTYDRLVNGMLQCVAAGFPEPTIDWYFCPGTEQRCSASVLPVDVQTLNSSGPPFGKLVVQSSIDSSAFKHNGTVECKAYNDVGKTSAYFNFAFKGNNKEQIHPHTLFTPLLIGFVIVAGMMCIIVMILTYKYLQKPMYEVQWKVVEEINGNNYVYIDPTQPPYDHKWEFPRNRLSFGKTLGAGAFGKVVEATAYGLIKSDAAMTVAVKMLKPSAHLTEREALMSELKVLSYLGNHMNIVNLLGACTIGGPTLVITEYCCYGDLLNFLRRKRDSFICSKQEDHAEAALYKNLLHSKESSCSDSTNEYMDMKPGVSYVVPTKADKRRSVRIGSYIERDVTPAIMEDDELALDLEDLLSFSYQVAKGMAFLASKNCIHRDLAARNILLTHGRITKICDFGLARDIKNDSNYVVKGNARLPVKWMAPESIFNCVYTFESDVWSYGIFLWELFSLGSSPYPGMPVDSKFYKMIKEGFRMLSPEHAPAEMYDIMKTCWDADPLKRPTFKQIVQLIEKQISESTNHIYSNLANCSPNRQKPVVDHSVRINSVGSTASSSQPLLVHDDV
Sequence of MAP3K12 (Q12852 whole entry): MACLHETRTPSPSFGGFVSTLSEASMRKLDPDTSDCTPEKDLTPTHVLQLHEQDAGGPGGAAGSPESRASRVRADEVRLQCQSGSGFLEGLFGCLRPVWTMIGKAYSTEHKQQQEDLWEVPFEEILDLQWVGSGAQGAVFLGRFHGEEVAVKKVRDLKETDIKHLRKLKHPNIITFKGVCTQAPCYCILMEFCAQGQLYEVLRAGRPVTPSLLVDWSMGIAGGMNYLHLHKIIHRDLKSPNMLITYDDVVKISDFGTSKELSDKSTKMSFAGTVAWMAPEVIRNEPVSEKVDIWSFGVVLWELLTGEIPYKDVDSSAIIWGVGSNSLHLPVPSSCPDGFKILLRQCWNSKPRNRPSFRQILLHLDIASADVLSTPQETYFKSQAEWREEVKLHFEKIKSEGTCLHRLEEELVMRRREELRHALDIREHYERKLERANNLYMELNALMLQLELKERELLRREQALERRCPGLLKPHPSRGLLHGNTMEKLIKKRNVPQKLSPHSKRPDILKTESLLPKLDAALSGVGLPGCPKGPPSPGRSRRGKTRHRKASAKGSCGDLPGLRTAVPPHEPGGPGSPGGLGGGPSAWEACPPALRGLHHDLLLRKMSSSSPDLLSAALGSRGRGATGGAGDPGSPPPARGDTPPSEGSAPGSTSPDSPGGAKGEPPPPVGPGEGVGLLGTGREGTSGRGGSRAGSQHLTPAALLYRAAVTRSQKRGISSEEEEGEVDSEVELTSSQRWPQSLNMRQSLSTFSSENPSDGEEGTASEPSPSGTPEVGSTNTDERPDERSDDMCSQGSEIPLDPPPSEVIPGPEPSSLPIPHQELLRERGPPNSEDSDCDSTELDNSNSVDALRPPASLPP
Sequence of DAPK3 (O43293 whole entry): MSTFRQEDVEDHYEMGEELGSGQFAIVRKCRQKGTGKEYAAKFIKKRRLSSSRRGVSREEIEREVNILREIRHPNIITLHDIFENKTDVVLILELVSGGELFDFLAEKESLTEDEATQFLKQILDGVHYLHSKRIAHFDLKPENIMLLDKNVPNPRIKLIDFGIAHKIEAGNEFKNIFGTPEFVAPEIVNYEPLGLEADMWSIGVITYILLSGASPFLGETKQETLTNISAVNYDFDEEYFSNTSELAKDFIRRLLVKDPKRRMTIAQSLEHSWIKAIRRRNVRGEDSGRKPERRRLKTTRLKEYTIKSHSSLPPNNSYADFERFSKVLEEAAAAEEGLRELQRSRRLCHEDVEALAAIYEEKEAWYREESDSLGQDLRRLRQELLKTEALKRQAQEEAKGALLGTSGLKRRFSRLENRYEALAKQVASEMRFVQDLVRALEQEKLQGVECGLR
Sequence of AURKB (Q96GD4 whole entry): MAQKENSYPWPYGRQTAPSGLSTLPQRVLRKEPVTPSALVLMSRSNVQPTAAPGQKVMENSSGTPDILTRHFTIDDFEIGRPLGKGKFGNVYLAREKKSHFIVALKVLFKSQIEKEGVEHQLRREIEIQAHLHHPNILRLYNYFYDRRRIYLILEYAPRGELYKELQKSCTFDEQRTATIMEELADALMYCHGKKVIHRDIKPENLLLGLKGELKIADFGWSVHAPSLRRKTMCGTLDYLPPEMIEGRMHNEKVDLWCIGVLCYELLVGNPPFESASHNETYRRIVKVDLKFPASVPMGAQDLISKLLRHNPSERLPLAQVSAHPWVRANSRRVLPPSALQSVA
Sequence of SgK110 (P0C264 whole entry): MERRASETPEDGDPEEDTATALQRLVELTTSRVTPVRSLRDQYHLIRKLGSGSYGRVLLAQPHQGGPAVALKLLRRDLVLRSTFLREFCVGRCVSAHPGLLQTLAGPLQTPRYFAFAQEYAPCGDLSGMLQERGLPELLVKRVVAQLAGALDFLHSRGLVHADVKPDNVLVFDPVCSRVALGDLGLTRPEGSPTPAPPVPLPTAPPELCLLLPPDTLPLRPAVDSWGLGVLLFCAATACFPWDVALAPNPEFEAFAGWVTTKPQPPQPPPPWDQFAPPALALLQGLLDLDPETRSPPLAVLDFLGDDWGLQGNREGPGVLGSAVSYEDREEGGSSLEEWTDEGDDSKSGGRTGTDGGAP
Sequence of GRK3 (P35626 whole entry): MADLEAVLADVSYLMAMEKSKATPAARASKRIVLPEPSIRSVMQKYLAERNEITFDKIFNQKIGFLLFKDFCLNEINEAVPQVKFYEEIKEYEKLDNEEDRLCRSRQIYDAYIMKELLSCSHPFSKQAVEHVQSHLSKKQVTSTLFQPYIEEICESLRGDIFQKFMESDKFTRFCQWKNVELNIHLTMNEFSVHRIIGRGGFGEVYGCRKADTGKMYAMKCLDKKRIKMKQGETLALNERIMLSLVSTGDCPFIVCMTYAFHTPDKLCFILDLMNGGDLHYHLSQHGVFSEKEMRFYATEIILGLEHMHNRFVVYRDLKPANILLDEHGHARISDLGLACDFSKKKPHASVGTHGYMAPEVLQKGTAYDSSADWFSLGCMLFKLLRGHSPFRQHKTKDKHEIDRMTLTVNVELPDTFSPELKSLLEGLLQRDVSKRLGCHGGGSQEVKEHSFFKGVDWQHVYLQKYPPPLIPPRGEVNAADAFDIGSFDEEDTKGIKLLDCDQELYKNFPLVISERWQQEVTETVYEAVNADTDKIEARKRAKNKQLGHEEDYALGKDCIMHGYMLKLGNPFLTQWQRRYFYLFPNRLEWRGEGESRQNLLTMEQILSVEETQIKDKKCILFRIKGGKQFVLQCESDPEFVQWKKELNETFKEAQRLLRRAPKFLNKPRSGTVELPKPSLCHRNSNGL
Sequence of CLK4 (Q9HAZ1 whole entry): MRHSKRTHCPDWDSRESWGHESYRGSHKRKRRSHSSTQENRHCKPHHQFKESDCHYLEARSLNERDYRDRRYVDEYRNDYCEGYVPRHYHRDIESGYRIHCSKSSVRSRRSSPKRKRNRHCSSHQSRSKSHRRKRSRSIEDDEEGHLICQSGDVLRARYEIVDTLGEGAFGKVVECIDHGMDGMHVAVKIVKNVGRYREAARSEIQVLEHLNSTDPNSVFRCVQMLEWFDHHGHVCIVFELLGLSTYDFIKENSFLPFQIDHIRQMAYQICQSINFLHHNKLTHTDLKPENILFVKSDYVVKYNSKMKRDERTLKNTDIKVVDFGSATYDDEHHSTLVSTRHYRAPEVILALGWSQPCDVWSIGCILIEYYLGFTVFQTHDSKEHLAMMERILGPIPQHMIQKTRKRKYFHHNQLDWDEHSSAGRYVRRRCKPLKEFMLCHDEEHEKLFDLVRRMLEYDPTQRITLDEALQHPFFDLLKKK
Sequence of FER (P16591 whole entry): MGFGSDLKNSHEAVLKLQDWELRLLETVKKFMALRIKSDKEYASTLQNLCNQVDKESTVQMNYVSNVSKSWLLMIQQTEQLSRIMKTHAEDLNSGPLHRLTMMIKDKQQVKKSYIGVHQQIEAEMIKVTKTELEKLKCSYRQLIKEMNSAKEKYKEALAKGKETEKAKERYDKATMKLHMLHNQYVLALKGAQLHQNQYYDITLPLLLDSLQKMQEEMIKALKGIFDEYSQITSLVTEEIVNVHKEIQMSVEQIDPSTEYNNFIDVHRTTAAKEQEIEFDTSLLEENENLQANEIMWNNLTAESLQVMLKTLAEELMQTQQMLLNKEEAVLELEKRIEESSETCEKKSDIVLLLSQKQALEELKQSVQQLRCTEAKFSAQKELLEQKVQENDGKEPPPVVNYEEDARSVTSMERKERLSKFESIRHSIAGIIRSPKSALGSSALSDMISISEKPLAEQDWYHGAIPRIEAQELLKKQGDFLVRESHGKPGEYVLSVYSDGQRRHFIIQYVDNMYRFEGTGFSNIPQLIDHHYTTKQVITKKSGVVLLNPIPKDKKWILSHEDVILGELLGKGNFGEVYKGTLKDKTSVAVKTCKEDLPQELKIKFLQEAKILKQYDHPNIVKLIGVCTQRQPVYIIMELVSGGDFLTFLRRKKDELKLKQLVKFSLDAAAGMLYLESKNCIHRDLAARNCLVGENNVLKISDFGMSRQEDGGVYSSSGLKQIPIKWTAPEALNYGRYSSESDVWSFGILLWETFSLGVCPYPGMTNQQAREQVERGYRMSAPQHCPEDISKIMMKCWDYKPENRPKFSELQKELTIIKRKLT
Sequence of KIT(V559D,T670I) (P10721 whole entry V559D/T670I): as the sequence (P10721 whole entry L576P) above, with V559D, P576L, T670I counted along it

## CNc1ncc2cc(-c3ccc(-c4cccc(C)n4)cc3Cl)c(=O)n(C[C@H]3OC[C@H](N)CO3)c2n1 [compound 6, G-5555]
[1]
  Percent Control: 100%
[2]
  Percent Control: 92%
AURKB
  Percent Control: 72%
CAMK1G
  Percent Control: 100%
CLK4
  Percent Control: 97%
DAPK3
  Percent Control: 100%
ERK2
  Percent Control: 100%
FER
  Percent Control: 100%
FLT3(ITD,D835V)
  Percent Control: 88%
GRK3
  Percent Control: 83%
HPK1
  Percent Control: 78%
HUNK
  Percent Control: 100%
IKK-epsilon
  Percent Control: 100%
KIT(L576P)
  Percent Control: 100%
KIT(V559D,T670I)
  Percent Control: 98%
MAP3K12
  Percent Control: 100%
MAP4K2
  Percent Control: 63%
MELK
  Percent Control: 51%
MET(Y1235D)
  Percent Control: 100%
RIOK3
  Percent Control: 85%
SBK1
  Percent Control: 98%
SYK
  Percent Control: 100%
SgK110
  Percent Control: 56%
TBK1
  Percent Control: 100%
TIE1
  Percent Control: 100%
WNK1
  Percent Control: 100%
FLT3(ITD)
  Percent Control: 100%
NEK3
  Percent Control: 72%
PIK3CA(H1047Y)
  Percent Control: 86%
ULK3
  Percent Control: 52%
